What all share (assay type): cell-based
One experiment has as its system Candida albicans. Kind of experiment: Broth dilution MIC, antifungal activity. The settings on record: strain MY 1055, 18 hours, 29° C. The protocol:
(§1) Minimum Inhibitory Concentrations The antifungal activity of the compound of formula 1 was determined using broth dilution assays. The compound was dissolved in DMSO at 3.7 mg/mL and serially diluted in 1% aqueous DMSO. The yeast strains including Candida species and Cryptococcal species were grown to exponential phase in a complex medium composed of 1% peptone, 0.5% yeast extract and 0.05% dextrose (CM) at 29° C. The yeast cells were diluted in CM to A600 =0.004 U/mL which was previously determined to be equal to 3000 colony forming units per milliliter. 180 uL of inoculated CM was added to the wells of a 96 well microtiter dish containing 20 μL of diluted inhibitor samples. The final concentration of the compound in the wells ranged from 37-0.01 μg/ml. The microtiter dishes were incubated for 18 hours at 29° C. and visually inspected for growth. The minimum inhibitory concentration (MIC) was recorded as the lowest concentration of compound to prevent visible growth.
A general note: Dilution methods test growth across graded concentrations, often in twofold steps.

The next experiment relates to Candida krusei. Kind of experiment: Broth dilution MIC, antifungal activity. The settings on record: Pichia kudriavzevii; strain MY 2168; 18 hours, 29° C. The procedure:
as §1

The test system of another experiment is Candida parapsilosis. Kind of experiment: Broth dilution MIC, antifungal activity. The settings on record: Lodderomyces parapsilosis; strain MY 1010; 18 hours, 29° C. The protocol: as §1
The subject of a further experiment is Candida tropicalis. Kind of experiment: Broth dilution MIC, antifungal activity. To be noted: strain MY 2167, 18 hours, 29° C. The protocol:
as §1

For a further experiment, the system named is Cryptococcus neoformans. Kind of experiment: Broth dilution MIC, antifungal activity. The settings on record: 18 h. The protocol: as §1
The test system of the next experiment is Aspergillus fumigatus. Kind of experiment: Broth dilution MIC, antifungal activity (spore inoculum). The settings on record: 18 h, strain MF 5668. The protocol:
as §1
(§2) The same procedure was used to determine the MIC of the compound against the filamentous fungi, Aspergillus fumigatus MF 5668, except a spore inoculum was prepared. Spores of A. fumigatus were obtained by washing a well sporulated slant of the organism growing on potato dextrose agar with 0.05% tween 80 solution. […]

The subject of another experiment is Entercoccus faecium. Kind of experiment: Broth dilution MIC, antibacterial activity. The settings on record: 24 h. The procedure:
(§3) The antibacterial activity of the compound was determined using broth dilution assays. The compound was dissolved in DMSO at 10 mg/mL and serially diluted in Luria Broth (LB), composed of […]. The Enterococcal strains were grown in Brain Heart Infusion broth; Staphylococcus aureus (MB2865) was grown in LB; S. aureus (MB108) and (MB2949) and Proteus vulgaris were grown in Nutrient Broth with 2% yeast extract. All bacterial strains were incubated overnight at 37° C. The bacterial cells were diluted 10^-4 in LB to give approximately 5×10^4 to 1×10^5 colony forming units per milliliter. 180 μL of inoculated LB was added to the wells of a 96 well microtiter dish containing 20 μL of diluted inhibitor samples. The final concentration of the compound in the wells ranged from 500-0.00025 μg/ml. The microtiter dishes were incubated for 24 hours at 28° C. and visually inspected for growth. The minimum inhibitory concentration (MIC) was recorded as the lowest concentration of compound to prevent visible growth.

The test system of the next experiment is Proteus vulgaris. Kind of experiment: Broth dilution MIC, antibacterial activity. To be noted: strain MB 838, 24 hours, 28° C. The procedure:
as §3

Another experiment relates to Staphylococcus aureus. Kind of experiment: Broth dilution MIC, antibacterial activity. To be noted: 24 h. The protocol: as §3
In a further experiment the test system is fungi. Kind of experiment: Antifungal activity in vitro (general statement). To be noted: qualitative statement. The protocol:
as §1, §2

In the next experiment the test system is bacterial strains. Kind of experiment: Antibacterial activity in vitro (general statement). To be noted: qualitative statement. The protocol:
as §3

In brackets after ≈: the same amount, converted by molar mass.

By MIC is commonly meant the least concentration at which growth counts as inhibited. As for `CCCCCCCCCC1OC1/C=C/C(=O)C1(O)C(=O)NC(CO)C1O` (stereo not drawn) [Compound 1], the MIC is 7.4 µg/mL (≈ 20 µM) in the experiment on Candida albicans; > 37 µg/mL against Candida krusei; 1.5 µg/mL (≈ 4.06 µM) against Candida parapsilosis; 7.4 µg/mL (≈ 20 µM) with Candida tropicalis; 7.4 µg/mL (≈ 20 µM) in the experiment on Cryptococcus neoformans (strain MY 2061, 29° C.); 0.02 µg/mL (≈ 0.0541 µM) with Cryptococcus neoformans (strain MY 2062, 29° C.). Moreover, the MIC against Aspergillus fumigatus was 37 µg/mL (≈ 100 µM); against Entercoccus faecium (strain MB 5571, 28° C.), 2 µg/mL (≈ 5.41 µM); with Entercoccus faecium (strain MB 5572, 28° C.), 1 µg/mL (≈ 2.71 µM); against Proteus vulgaris it was > 500 µg/mL; in the experiment on Staphylococcus aureus (strain MB 108, 28° C.), 0.5 µg/mL (≈ 1.35 µM); in the experiment with Staphylococcus aureus (strain MB 2865, 28° C.), 0.5 µg/mL (≈ 1.35 µM). In the experiment on Staphylococcus aureus (strain MB 2949, 28° C.), this compound came in with an MIC of 125 to 250 µg/mL (≈ 338 to 677 µM). Besides, the antifungal activity result with fungi was “antifungal and antibacterial activity”. In addition, the antibacterial activity entry in the experiment on bacterial strains is “antifungal and antibacterial activity”.

For the origin of these results see US5348970A, “Antifungal compound and compositions containing the compound” (Merck & Co., Inc., priority 1993, dated 1994).
